Reference: the supplement of paper PMC10307832

Key:
Experiment in all cases: relative viability (nuclei count vs DMSO), 5 days (fraction); higher = more cells survive
EHT 1864 + Bortezomib = compound: C1COCCN1CC2=CC(=O)C(=CO2)OCCCCCSC3=C4C=CC(=CC4=NC=C3)C(F)(F)F [EHT 1864] + CC(C)C[C@H](NC(=O)[C@H](Cc1ccccc1)NC(=O)c1cnccn1)B(O)O [Bortezomib] (partner 0.002 µM)
In short: (§1)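 For relative viability, nuclei counts in treated wells were divided by those in vehicle wells. Lung cancer cell lines had been pin-tool dosed in 1536-well plates the day after seeding and cultured for 5 days, then fixed and stained in one step (final 0.05% Triton X-100, 1% formaldehyde, 1 ug/ml Hoechst) and imaged at 4×. Doses were one drug alone or a fixed anchor-drug dose plus five library-drug doses (not always all listed) in √10 steps, and values are duplicate-plate medians.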

EHT 1864 + Lapatinib = compound: C1COCCN1CC2=CC(=O)C(=CO2)OCCCCCSC3=C4C=CC(=CC4=NC=C3)C(F)(F)F [EHT 1864] + CS(=O)(=O)CCNCc1ccc(-c2ccc3ncnc(Nc4ccc(OCc5cccc(F)c5)c(Cl)c4)c3c2)o1 [Lapatinib] (partner 2 µM)
In short: as §1

EHT 1864 + AZD7762 = compound: C1COCCN1CC2=CC(=O)C(=CO2)OCCCCCSC3=C4C=CC(=CC4=NC=C3)C(F)(F)F [EHT 1864] + NC(=O)Nc1cc(-c2cccc(F)c2)sc1C(=O)N[C@H]1CCCNC1 [AZD7762] (partner 0.2 µM)
In short: as §1

EHT 1864 + Decitabine = compound: C1COCCN1CC2=CC(=O)C(=CO2)OCCCCCSC3=C4C=CC(=CC4=NC=C3)C(F)(F)F [EHT 1864] + Nc1ncn([C@H]2C[C@H](O)[C@@H](CO)O2)c(=O)n1 [Decitabine] (partner 2 µM)
In short: as §1

PC-14 was tested, and the relative viability (EHT 1864 + Bortezomib; first compound 0.04 µM) was 0.977, the relative viability (EHT 1864 + Bortezomib; first compound 0.1265 µM) was 0.86 and the relative viability (EHT 1864 + Bortezomib; first compound 0.4 µM) was 0.877. It also gave a relative viability (EHT 1864 + Bortezomib; first compound 1.265 µM) of 0.837, a relative viability (EHT 1864 + Bortezomib; first compound 4 µM) of 0.778 and a relative viability (EHT 1864 + Lapatinib; first compound 0.04 µM) of 0.316. For the same cell line, the relative viability (EHT 1864 + Lapatinib; first compound 0.1265 µM) was 0.28, the relative viability (EHT 1864 + Lapatinib; first compound 0.4 µM) was 0.325 and the relative viability (EHT 1864 + Lapatinib; first compound 1.265 µM) was 0.294. The relative viability (EHT 1864 + Lapatinib; first compound 4 µM) was 0.272, the relative viability (EHT 1864 + AZD7762; first compound 0.04 µM) was 0.368 and the relative viability (EHT 1864 + AZD7762; first compound 0.1265 µM) was 0.248. It also gave a relative viability (EHT 1864 + AZD7762; first compound 0.4 µM) of 0.394, a relative viability (EHT 1864 + AZD7762; first compound 1.265 µM) of 0.304 and a relative viability (EHT 1864 + AZD7762; first compound 4 µM) of 0.433. For the same cell line, the relative viability (EHT 1864 + Decitabine; first compound 0.04 µM) was 0.213, the relative viability (EHT 1864 + Decitabine; first compound 0.1265 µM) was 0.201 and the relative viability (EHT 1864 + Decitabine; first compound 0.4 µM) was 0.265. For the same cell line, the relative viability (EHT 1864 + Decitabine; first compound 1.265 µM) was 0.244 and the relative viability (EHT 1864 + Decitabine; first compound 4 µM) was 0.162.

In the case of RERF-LC-KJ, the relative viability (EHT 1864 + Bortezomib; first compound 0.04 µM) is reported as 1.05, the relative viability (EHT 1864 + Bortezomib; first compound 0.1265 µM) is reported as 0.948 and the relative viability (EHT 1864 + Bortezomib; first compound 0.4 µM) is reported as 1.04. It also gave a relative viability (EHT 1864 + Bortezomib; first compound 1.265 µM) of 0.951, a relative viability (EHT 1864 + Bortezomib; first compound 4 µM) of 1.15 and a relative viability (EHT 1864 + Lapatinib; first compound 0.04 µM) of 0.916. The relative viability (EHT 1864 + Lapatinib; first compound 0.1265 µM) was 0.913, the relative viability (EHT 1864 + Lapatinib; first compound 0.4 µM) was 0.925 and the relative viability (EHT 1864 + Lapatinib; first compound 1.265 µM) was 0.798. The relative viability (EHT 1864 + Lapatinib; first compound 4 µM) was 0.854, the relative viability (EHT 1864 + AZD7762; first compound 0.04 µM) was 0.893 and the relative viability (EHT 1864 + AZD7762; first compound 0.1265 µM) was 0.873. For the same cell line, the relative viability (EHT 1864 + AZD7762; first compound 0.4 µM) was 0.96, the relative viability (EHT 1864 + AZD7762; first compound 1.265 µM) was 0.939 and the relative viability (EHT 1864 + AZD7762; first compound 4 µM) was 1.43. The relative viability (EHT 1864 + Decitabine; first compound 0.04 µM) was 0.588, the relative viability (EHT 1864 + Decitabine; first compound 0.1265 µM) was 0.691 and the relative viability (EHT 1864 + Decitabine; first compound 0.4 µM) was 0.61. The relative viability (EHT 1864 + Decitabine; first compound 1.265 µM) was 0.694 and the relative viability (EHT 1864 + Decitabine; first compound 4 µM) was 0.576.
